In patent publication US20140045807A2, “THE USE OF 3-METHOXY-PREGNENOLONE FOR THE PREPARATION OF A DRUG FOR TREATING A TRAUMATIC BRAIN INJURY” (priority 2004, published 2014):

What was measured:
[1] = target: MAP2 (Homo sapiens, UniProt P11137); assay: Binding (affinity) by displacement of PREG-^3H
Method: Binding (affinity) is measured by the displacement of PREG-^3H.

[2] = target: purified tubulin and MAP2 (Homo sapiens, UniProt P11137); assay: MAP2-induced polymerization of microtubules in vitro (optical density at 345 nm); assay type: biochemical; conditions: for Activity (increase in optical density at 345 nm): purified tubulin and MAP2, 37° C., GTP; for effect on microtubule polymerization: MAP2 and tubulin with GTP, 37° C.
Sequence of purified tubulin and MAP2 (P11137 whole entry): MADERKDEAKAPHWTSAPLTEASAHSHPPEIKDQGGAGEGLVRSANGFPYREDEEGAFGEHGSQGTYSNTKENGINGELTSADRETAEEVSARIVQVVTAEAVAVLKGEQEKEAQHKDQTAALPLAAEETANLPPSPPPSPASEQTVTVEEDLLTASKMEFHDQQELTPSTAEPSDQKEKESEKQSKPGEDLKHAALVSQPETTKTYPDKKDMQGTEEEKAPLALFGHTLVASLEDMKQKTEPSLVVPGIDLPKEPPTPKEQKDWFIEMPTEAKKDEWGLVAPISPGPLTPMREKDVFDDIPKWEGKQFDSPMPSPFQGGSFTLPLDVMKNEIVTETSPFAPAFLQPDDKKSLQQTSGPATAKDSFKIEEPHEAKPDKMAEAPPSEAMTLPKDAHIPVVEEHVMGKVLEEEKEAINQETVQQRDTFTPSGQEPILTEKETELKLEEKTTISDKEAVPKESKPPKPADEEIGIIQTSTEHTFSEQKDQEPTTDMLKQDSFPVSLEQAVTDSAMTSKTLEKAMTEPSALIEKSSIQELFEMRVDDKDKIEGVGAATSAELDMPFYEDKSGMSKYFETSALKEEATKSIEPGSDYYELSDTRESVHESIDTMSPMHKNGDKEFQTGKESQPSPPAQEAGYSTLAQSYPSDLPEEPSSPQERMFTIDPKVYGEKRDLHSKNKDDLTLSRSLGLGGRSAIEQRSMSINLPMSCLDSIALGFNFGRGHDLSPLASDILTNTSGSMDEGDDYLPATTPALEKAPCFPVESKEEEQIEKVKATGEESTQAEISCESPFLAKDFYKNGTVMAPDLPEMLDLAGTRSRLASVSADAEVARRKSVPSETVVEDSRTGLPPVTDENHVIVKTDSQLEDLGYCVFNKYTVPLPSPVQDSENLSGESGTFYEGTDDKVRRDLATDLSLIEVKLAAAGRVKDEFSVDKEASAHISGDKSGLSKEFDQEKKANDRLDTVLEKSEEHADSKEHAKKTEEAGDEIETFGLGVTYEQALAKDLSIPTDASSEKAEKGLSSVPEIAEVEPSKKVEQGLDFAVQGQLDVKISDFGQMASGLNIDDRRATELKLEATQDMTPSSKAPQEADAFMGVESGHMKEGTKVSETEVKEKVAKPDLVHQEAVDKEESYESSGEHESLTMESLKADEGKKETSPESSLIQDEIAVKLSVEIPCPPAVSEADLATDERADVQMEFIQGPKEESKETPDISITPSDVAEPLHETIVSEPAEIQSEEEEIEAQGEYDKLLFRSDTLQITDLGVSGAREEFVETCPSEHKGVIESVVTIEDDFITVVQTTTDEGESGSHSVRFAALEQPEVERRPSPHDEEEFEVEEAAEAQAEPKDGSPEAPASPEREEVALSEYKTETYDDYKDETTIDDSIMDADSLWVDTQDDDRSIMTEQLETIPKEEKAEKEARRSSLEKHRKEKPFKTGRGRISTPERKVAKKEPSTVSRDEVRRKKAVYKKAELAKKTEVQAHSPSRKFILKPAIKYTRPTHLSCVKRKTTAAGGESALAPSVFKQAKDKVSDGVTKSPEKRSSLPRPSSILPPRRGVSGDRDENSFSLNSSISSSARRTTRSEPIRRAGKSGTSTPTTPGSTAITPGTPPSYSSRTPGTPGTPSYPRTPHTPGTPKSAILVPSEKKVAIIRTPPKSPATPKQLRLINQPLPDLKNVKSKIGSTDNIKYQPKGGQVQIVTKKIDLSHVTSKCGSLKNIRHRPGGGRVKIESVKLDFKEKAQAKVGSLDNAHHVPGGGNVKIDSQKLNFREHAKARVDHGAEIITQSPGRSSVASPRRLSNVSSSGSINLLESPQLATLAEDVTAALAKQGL
Method: Purified MAP2 and tubulin are mixed in the presence of GTP at 4° C. in a spectrophotometer cuvette. Polymerization is induced by heating at 37° C. and is followed by the increase in optical density (OD) which indicates the quantity of polymers formed.
This in vitro test measures the effect of molecules on the MAP2-induced polymerization of microtubules. This polymerization occurs when MAP2 proteins and tubulin are mixed at adequate concentrations in the presence of GTP. It is accompanied by an increase in optical density measured at 345 nm for 15 to 30 minutes with a UNICON spectrophotometer thermostated at 37° C. (FIG. 1).
Activity is measured by the increase in optical density at 345 nm of a mixture of purified tubulin and MAP2, incubated at 37° C. in the presence of GTP.

[3] = system: human neuroblastoma HS-SY5Y cells; assay: Cytotoxicity of okadaic acid, steroid protection (LDH release); assay type: cell-based; conditions: 24 hours, simultaneous addition, increasing concentrations
Description: FIG. 6: Toxicity of okadaic acid. Steroid protection. […] Cell death was indicated by the release of lactate dehydrogenase (LDH) in the culture medium.
Okadaic acid is a protein phosphatase inhibiter. Thus, the hyperphosphorylation of tau protein is implicated in microtubule depolymerization and in human neuroblastoma HS-SY5Y cell death. The exposure of SY5Y cell cultures to okadaic acid does in fact cause significant cell death.

[4] = system: PC12 cell line; assay: Cellular toxicity test; assay type: cell-based, rat; conditions: concentrations as high as solubility limits (approximately 50 μM)
Method: Cellular toxicity tests are carried out routinely on the PC12 cell line.

[5] = system: Sprague Dawley rats in the FST; assay: Forced swimming test (FST); assay type: in vivo, rat; conditions: 10 mg/kg subcutaneously, 24, 5, 1 h before testing
Description: (A) 3-methoxy-PREG (43B) decreased rat immobility in the FST showing antidepressant activity. Results are expressed as mean±SEM (n=6-14). One-way ANOVA: Treatment (F5, 46: 4.30 P<0.01). ***P<0.001, *P<0.05 vs. water and sesame oil (Fisher LSD test). […] Results are expressed as mean±SEM (n=6-14). One-way ANOVA: Treatment (F5, 46: 3.57 P<0.01). **P<0.01, *P<0.05 vs. water and sesame oil (Fisher LSD test). […] One-way ANOVA: Treatment (F5, 46: 3.57 P<0.01). **P<0.01, *P<0.05 vs. water and sesame oil (Fisher LSD test).
Drugs were administered following the traditional dosing regimen used in the FST consisting of three injections: 24, 5, 1 h before testing.
The FST is currently the most widely used animal model for assessing depression related behavior and antidepressant drug activity in rodents (Cryan et al., Neubiorev. 2005). Rats are placed in an inescapable cylinder of water where they develop an immobile posture believed to reflect a “depressive”-like state. The time rats spend immobile is decreased by drugs exerting antidepressant activity.
Additional behaviors can be detected in the FST; namely, climbing and swimming. It has been shown that swimming behavior is sensitive to SSRIs such as fluoxetine whereas climbing is sensitive to norepinephrine re-uptake inhibitors (NRI) such as desipramine.

[6] = system: PC12 cells; assay: Retraction of neurites induced by nocodazole; assay type: cell-based, rat; conditions: pretreated one hour at 30 μM, nocodazole 15 minutes
Description: FIG. 5: Retraction of neurites (neurites) induced by nocodazole.
Nocodazole is a microtubule depolymerizing agent. Its addition to PC12 cell cultures, differentiated in the presence of NGF, causes neurites to retract as a result of the depolymerization of their microtubules.

[7] = system: PC12 cells; assay: Neuritic growth / sprouting in PC12 cells with NGF; assay type: cell-based, rat; conditions: 30 μM, after 3 days of culture, with NGF
Method: Each molecule was tested in three culture wells. Measurements were taken for 200 cells per well using Scion Image software.
Neurite (neurite) length was measured for 200 cells per well after 2, 5, and 8 days of culture.
Stimulation of neuritic sprouting is conducted on PC12 cells differentiated in the presence of NGF (10 ng/ml) and the steroid being tested (30 μM) for 3 days. For each condition, the average length of the longest 200 neurites in each cell is measured simultaneously for 3 cultures.

[8] = system: α-tubulin forms (Tyr/Glu-Tub, Acet-Tub) in rat hippocampus; assay: Microtubule dynamics in rat hippocampus after single administration; assay type: in vivo; conditions: 10 mg/kg subcutaneously, 3 h following injection
Description: Mean±SEM, n=6 per group. **p<0.01, *[…] vs sesame oil.
The effects produced by neurosteroids were compared with those produced by acute administration of the antidepressant drug fluoxetine (selective serotonin reuptake inhibitor; SSRI).

[9] = system: transgenic mice expressing the longest human tau protein isoform; assay: RotaRod test in transgenic mice expressing the longest human tau protein isoform; assay type: in vivo, mouse; conditions: subcutaneous implant releasing 0.38 mg of steroid per day for 90 days
Description: FIG. 8: Effect of molecule 43B on the motor incoordination of transgenic mice expressing the longest isoform of human tau protein in their neurons. […] The maximum speed of rotation of the RotaRod drum before the […] falls is a measurement of motor coordination (higher values correspond to a better treatment effect).
In order to evaluate the therapeutic potential of 43B to treat Alzheimer-type neurodegenerative diseases, a homozygous transgenic line of mice, such as described by Götz (EMBO J. 1995; 14(7):1304-13), can be used.
These mice express the longest human tau protein isoform. They present symptoms of neurological dysfunction expressed as muscular weakness and a reduction in motor coordination which correlate histologically with the appearance of abnormal neurites and hyperphosphorylated tau proteins as is seen in Alzheimer's disease. This pathological phosphorylation decreases the affinity of tau for microtubules and favors its aggregation.
A breeding program was undertaken at Bicêtre and genotyping made it possible to select mice homozygous for the transgene. […] These implants released 0.38 mg of steroid per day for 90 days. The progression of motor incoordination was followed by repeated RotaRod tests.

[10] = target: T1, human progesterone receptor(PR) (Homo sapiens, UniProt P06401); assay: Test of progesterone receptor agonist activity (luciferase transactivation, HEK293T); assay type: cell-based; conditions: increasing amounts, 24 hours
T1 construct: expressed in transfected cells; host or cells: HEK293T
T1 sequence (P06401 1-933): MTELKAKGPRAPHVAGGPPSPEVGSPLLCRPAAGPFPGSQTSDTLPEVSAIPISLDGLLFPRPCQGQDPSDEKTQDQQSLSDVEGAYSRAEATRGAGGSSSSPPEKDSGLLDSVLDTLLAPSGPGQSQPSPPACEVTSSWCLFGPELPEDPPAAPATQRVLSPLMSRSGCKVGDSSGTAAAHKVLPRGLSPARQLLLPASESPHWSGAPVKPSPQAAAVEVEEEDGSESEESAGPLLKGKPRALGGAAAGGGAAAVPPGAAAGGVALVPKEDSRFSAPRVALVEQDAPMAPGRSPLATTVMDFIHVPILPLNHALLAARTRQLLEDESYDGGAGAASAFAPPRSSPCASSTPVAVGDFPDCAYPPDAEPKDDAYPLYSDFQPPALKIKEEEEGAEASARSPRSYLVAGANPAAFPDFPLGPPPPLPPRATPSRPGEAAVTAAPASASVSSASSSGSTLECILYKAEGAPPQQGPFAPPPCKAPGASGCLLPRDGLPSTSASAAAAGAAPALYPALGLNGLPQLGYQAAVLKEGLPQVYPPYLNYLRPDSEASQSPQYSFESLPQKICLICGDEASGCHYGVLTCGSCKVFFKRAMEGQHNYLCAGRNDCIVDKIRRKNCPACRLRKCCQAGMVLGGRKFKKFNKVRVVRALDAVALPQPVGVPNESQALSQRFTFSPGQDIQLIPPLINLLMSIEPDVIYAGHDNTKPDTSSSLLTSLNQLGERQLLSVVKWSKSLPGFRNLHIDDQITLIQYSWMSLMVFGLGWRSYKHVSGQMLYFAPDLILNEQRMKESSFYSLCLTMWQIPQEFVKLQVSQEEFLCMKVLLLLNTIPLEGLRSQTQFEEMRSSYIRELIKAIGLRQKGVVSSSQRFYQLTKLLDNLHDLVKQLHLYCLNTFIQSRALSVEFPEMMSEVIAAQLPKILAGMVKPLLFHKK
Method: The main experimental setting used is the following: HEK293T cells were transiently transfected, using calcium phosphate precipitation technology, with expression vectors pSG5hPR (which permits expression of human progesterone receptor(PR)), pFC31-luc (contains the luciferase gene under the control of the MMTV promoter, which is in turn activated by binding of a progestin to progesterone receptor) and pcbetagal (which permits expression of betagalactosidase), and cultured during 24 hours with increasing amounts of various compositions: • 1. […] Test of progesterone receptor […] activity: transfected cells were cultured with progesterone (1 nM) and increasing amounts of RU486 (a well-known progesterone receptor antagonist) or 3-methoxy-pregnenolone. • With this setting, a compound with progesterone receptor antagonist activity competes with progesterone for the occupation of progesterone receptor and results in a progressive loss of transactivation activity when the amount of this compound is increased compared to progesterone.

[11] = 40 μM, compared to control kinetics with solvent alone

Sequence of MAP2 (P11137 whole entry): as the sequence (P11137 whole entry) above

Row | Compound | Affinity (index of binding) [1] | Activity (increase in optical density at 345 nm) [2] | also measured
1 | CC(=O)[C@H]1[C@H](C)C[C@H]2[C@@H]3CC[C@H]4C[C@@H](O)CC[C@]4(C)[C@H]3CC[C@@]21C [3β-hydroxy-5α-pregnane-20-one-16α-methyl] | 57% of PREG | 53% of PREG | –
2 | CO[C@H]1CC[C@@]2(C)[C@@H](CC[C@@H]3[C@@H]2CC[C@]2(C)[C@@H](C(C)=O)CC[C@@H]32)C1 [3β-methoxy-5α-pregnane-20-one] | 87% of PREG | 10% of PREG | –
3 | CO[C@H]1CC[C@@]2(C)C(CCC3C2CC[C@@]2(C)C3CC[C@@H]2[C@@H](C)O)C1 (stereo partly drawn) [3β-methoxy-5α-pregnane-20β-ol] | 65% of PREG | 65% of PREG | –
4 | CO[C@H]1CC[C@@]2(C)C(=CC[C@H]3C4=CC[C@H](C(C)=O)[C@@]4(C)CC[C@@H]32)C1 [3β-methoxy-pregna-5,14-diene-20-one] | 102% of PREG | 50% of PREG | –
5 | CO[C@H]1CC[C@@]2(C)C(=CC[C@@H]3[C@@H]2CC[C@@]2(C)[C@H]3CC[C@@]2(C(C)=O)C(Cl)Cl)C1 [3β-methoxy-pregna-5-ene-20-one-17α-dichloromethyl] | 53% of PREG | 113% of PREG | –
6 | CC(=O)[C@H]1CC[C@H]2[C@@H]3CC=C4C[C@@H](O)CC[C@]4(C)[C@H]3CC[C@]12C [PREG, Pregnenolone] | – | 100% of PREG | cell death caused by okadaic acid (LDH release) [3]: Cell death is decreased; cellular toxicity [4]: do not demonstrate toxicity; rat climbing behavior in the FST [5]: not changed; rat swimming in the FST [5]: significantly increased; resistance of neurites to nocodazole [6]: makes the neurites resistant to nocodazole; increase in the average length of the neurites [7]: 60%; Acet-Tub (marker of stable microtubules) [8]: significantly decreased; motor dysfunction (RotaRod) [9]: Only the 3-methoxy-PREG had a beneficial effect; Lag time of microtubule polymerization [2, 11]: decreased; polymerization rate and quantity of microtubules [2, 11]: clearly increase; effect on microtubule polymerization [2]: activates microtubule polymerization
7 | CC(=O)[C@@]12C[C@@H]1C[C@H]1[C@@H]3CC=C4C[C@@H](O)CC[C@]4(C)[C@H]3CC[C@@]12C [PREG-16α,17α-methylene] | 62% of PREG | 49% of PREG | –
8 | CC(=O)[C@H]1[C@H](C)C[C@H]2[C@@H]3CC=C4C[C@@H](O)CC[C@]4(C)[C@H]3CC[C@@]21C [PREG-16α-methyl] | 80% of PREG | 70% of PREG | –
9 | CC(=O)[C@H]1[C@@H](C)C[C@H]2[C@@H]3CC=C4C[C@@H](O)CC[C@]4(C)[C@H]3CC[C@@]21C [PREG-16β-methyl] | 63% of PREG | 67% of PREG | –
10 | CC(=O)O[C@H](C)[C@H]1CC[C@H]2[C@@H]3CC=C4C[C@@H](O)CC[C@]4(C)[C@H]3CC[C@]12C [Pregna-5-ene-3β,20β-diol-20-acetate] | 60% of PREG | 108% of PREG | –
11 | CNCCC(Oc1ccc(C(F)(F)F)cc1)c1ccccc1 (stereo not shown) [fluoxetine] | – | – | Acet-Tub (marker of stable microtubules) [8]: tendency to increase; Tyr/Glu-Tub ratio (index of microtubule dynamics) [8]: did not change
12 | CC(=O)[C@H]1CC[C@H]2[C@@H]3CCC4=CC(=O)CC[C@]4(C)[C@H]3CC[C@]12C [progesterone, reference compound] | – | – | progesterone receptor agonist (transactivation) activity [10]: permits a transactivation activity; effect on microtubule polymerization [2]: do not stimulate polymerization
13 | PREG-16α,17α-epoxy | 41% of PREG | 54% of PREG | –
14 | pregnenolone sulfate [reference compound] | – | – | effect on microtubule polymerization [2]: do not stimulate polymerization
